Assay results from ChEMBL document CHEMBL5143695, “Benzobis(imidazole) derivatives as STAT3 signal inhibitors with antitumor activity” (Bioorg Med Chem, 2022).
Calls of active or inactive are those of the source. No cut-off for these calls is given here.

How the values were obtained:
HepG2 [1] = assay: Induction of apoptosis in human HepG2 cells assessed as necrotic cells at 5 uM incubated for 48 hrs by Annexin V/PI staining based flow cytometry method (reference value: 0.57%); assay type: functional
HepG2 [2] = assay: Induction of apoptosis in human HepG2 cells assessed as viable cells at 5 uM incubated for 48 hrs by Annexin V/PI staining based flow cytometry method (reference value: 92.5%); assay type: functional; conditions: read-out: Activity
[3] = Cytotoxicity against HEK-Blue IL-6 cells; assay type: toxicity, cell-based; conditions: human
ECa-109 cell line [4] = assay: Antitumor activity against human EC109 cells assessed as reduction in cell viability incubated for 72 hrs by MTT assay; assay type: functional, cell-based; conditions: ECa-109, 72 h
[5] = target: Signal transducer and activator of transcription 3 (Homo sapiens) (UniProt P40763); assay: Inhibition of STAT3 phosphorylation at Y705 residue in human HepG2 cells measured after 16 hrs by Western blotting analysis; assay type: cell-based; conditions: dose 2.5-20 µM, DDE = dose-dependent effect
[6] = target: Signal transducer and activator of transcription 3 (Homo sapiens) (UniProt P40763); assay: Inhibition of STAT3 nuclear translocation in human HepG2 cells assessed as decrease in nuclear STAT3 level at 5 to 10 microM incubated overnight by immunofluorescence analysis; assay type: cell-based; conditions: dose 5-10 µM
[7] = target: Signal transducer and activator of transcription 3 (Homo sapiens) (UniProt P40763); assay: Inhibition of STAT3 dimerization in human HepG2 cells assessed as increase in STAT3 monomer expression at 5 to 10 uM incubated for 24 hrs by DSS crosslink assay; assay type: cell-based; conditions: dose 5-10 µM
[8] = target: Signal transducer and activator of transcription 3 (Homo sapiens) (UniProt P40763); assay: Inhibition of IL-6 induced STAT3 phosphorylation at Tyr705 residue in human HepG2 cells preincubated for 16 hrs followed by IL-6 stimulation for 30 mins by Western blot analysis; assay type: cell-based; conditions: dose 2.5-20 µM, DDE = dose-dependent effect
[9] = target: Signal transducer and activator of transcription 3 (Homo sapiens) (UniProt P40763); assay: Inhibition of IL-6 induced STAT3 phosphorylation at Tyr705 residue in human EC109 cells preincubated for 16 hrs followed by IL-6 stimulation for 30 mins by Western blot analysis; assay type: cell-based; conditions: dose 2.5-20 µM, DDE = dose-dependent effect
HepG2 [10] = assay: Induction of apoptosis in human HepG2 cells assessed as early apoptotic cells at 5 uM incubated for 48 hrs by Annexin V/PI staining based flow cytometry method (reference value: 3.31%); assay type: functional
HepG2 [11] = assay: Induction of apoptosis in human HepG2 cells assessed as late apoptotic cells at 5 uM incubated for 48 hrs by Annexin V/PI staining based flow cytometry method (reference value: 3.64%); assay type: functional
HepG2 [12] = assay: Induction of apoptosis in human HepG2 cells assessed as viable cells at 10 uM incubated for 48 hrs by Annexin V/PI staining based flow cytometry method (reference value: 92.5%); assay type: functional; conditions: read-out: Activity
HepG2 [13] = assay: Induction of apoptosis in human HepG2 cells assessed as late apoptotic cells at 10 uM incubated for 48 hrs by Annexin V/PI staining based flow cytometry method (reference value: 3.64%); assay type: functional
HepG2 [14] = assay: Induction of apoptosis in human HepG2 cells assessed as necrotic cells at 10 uM incubated for 48 hrs by Annexin V/PI staining based flow cytometry method (reference value: 0.57%); assay type: functional
HepG2 [15] = assay: Induction of apoptosis in human HepG2 cells assessed as viable cells at 20 uM incubated for 48 hrs by Annexin V/PI staining based flow cytometry method (reference value: 92.5%); assay type: functional; conditions: read-out: Activity
HepG2 [16] = assay: Induction of apoptosis in human HepG2 cells assessed as early apoptotic cells at 20 uM incubated for 48 hrs by Annexin V/PI staining based flow cytometry method (reference value: 3.31%); assay type: functional
HepG2 [17] = assay: Induction of apoptosis in human HepG2 cells assessed as late apoptotic cells at 20 uM incubated for 48 hrs by Annexin V/PI staining based flow cytometry method (reference value: 3.64%); assay type: functional
ECa-109 cell line [18] = assay: Induction of apoptosis in human EC109 cells assessed as viable cells at 5 uM incubated for 48 hrs by Annexin V/PI staining based flow cytometry method (reference value: 91.7%); assay type: functional; conditions: read-out: Activity
ECa-109 cell line [19] = assay: Induction of apoptosis in human EC109 cells assessed as viable cells at 10 uM incubated for 48 hrs by Annexin V/PI staining based flow cytometry method (reference value: 91.7%); assay type: functional; conditions: read-out: Activity
ECa-109 cell line [20] = assay: Induction of apoptosis in human EC109 cells assessed as early apoptotic cells at 10 uM incubated for 48 hrs by Annexin V/PI staining based flow cytometry method (reference value: 1.36%); assay type: functional
ECa-109 cell line [21] = assay: Induction of apoptosis in human EC109 cells assessed as late apoptotic cells at 10 uM incubated for 48 hrs by Annexin V/PI staining based flow cytometry method (reference value: 6.17%); assay type: functional
ECa-109 cell line [22] = assay: Induction of apoptosis in human EC109 cells assessed as viable cells at 20 uM incubated for 48 hrs by Annexin V/PI staining based flow cytometry method (reference value: 91.7%); assay type: functional; conditions: read-out: Activity
ECa-109 cell line [23] = assay: Induction of apoptosis in human EC109 cells assessed as early apoptotic cells at 20 uM incubated for 48 hrs by Annexin V/PI staining based flow cytometry method (reference value: 1.36%); assay type: functional
HepG2 [24] = assay: Induction of apoptosis in human HepG2 cells assessed as downregulation of MCL-1 protein expression by Western blotting analysis; assay type: functional, cell-based; conditions: dose 2.5-20 µM, DDE = dose-dependent effect
ECa-109 cell line [25] = assay: Induction of apoptosis in human EC109 cells assessed as downregulation of MCL-1 protein expression by Western blotting analysis; assay type: functional, cell-based; conditions: dose 2.5-20 µM, DDE = dose-dependent effect
HepG2 [26] = assay: Induction of cell cycle arrest in human HepG2 cells assessed as accumulation of cells at G0/G1 phase incubated for 24 hrs by flow cytometric analysis (reference value: 66.65%); assay type: functional
HepG2 [27] = assay: Induction of cell cycle arrest in human HepG2 cells assessed as decrease in cells at S phase incubated for 24 hrs by flow cytometric analysis (reference value: 23.01%); assay type: functional; parameters: scale not given: the % may be the effect or the level left
ECa-109 cell line [28] = assay: Induction of cell cycle arrest in human EC109 cells assessed as accumulation of cells at G0/G1 phase incubated for 24 hrs by flow cytometric analysis (reference value: 49.86%); assay type: functional
ECa-109 cell line [29] = assay: Induction of cell cycle arrest in human EC109 cells assessed as decrease in cells at S phase incubated for 24 hrs by flow cytometric analysis (reference value: 36.08%); assay type: functional; parameters: scale not given: the % may be the effect or the level left
HepG2 [30] = assay: Inhibition of cell migration in human HepG2 cells incubated for 48 hrs by microscopic analysis based wound healing assay; assay type: functional; conditions: dose 5-10 µM, DDE = dose-dependent effect
HepG2 [31] = assay: Antitumor activity against human HepG2 cells xenografted in BALB/c athymic nude mouse assessed as tumor growth inhibition at 20 mg/kg, ip administered daily for 24 days relative to control; assay type: functional; conditions: HepG2, 576 h, time 24 day, read-out: TGI
HepG2 [32] = assay: Antitumor activity against human HepG2 cells xenografted in BALB/c athymic nude mouse assessed as tumor growth inhibition at 40 mg/kg, ip administered daily for 24 days relative to control; assay type: functional; conditions: HepG2, 576 h, time 24 day, read-out: TGI
[33] = Toxicity in BALB/c athymic nude mouse xenografted with human HepG2 cells assessed as effect on body weight at 20 to 40 mg/kg, ip administered daily for 24 days; assay type: organism-based; conditions: in vivo, 576 h, dose 20-40 mg/kg, time 24 day
HepG2 [34] = assay: Antitumor activity against human HepG2 cells xenografted in BALB/c athymic nude mouse assessed as decrease in Ki67 expression level at 20 to 40 mg/kg, ip administered daily for 24 days; assay type: functional, organism-based; conditions: dose 20-40 mg/kg, time 24.0 day
HepG2 [35] = assay: Antitumor activity against human HepG2 cells xenografted in BALB/c athymic nude mouse assessed as decrease in STAT3 phosphorylation at Y705 residues at 20 to 40 mg/kg, ip administered daily for 24 days; assay type: functional, organism-based; conditions: dose 20-40 mg/kg, time 24.0 day

Sequence of Signal transducer and activator of transcription 3 (Homo sapiens) (P40763 whole entry): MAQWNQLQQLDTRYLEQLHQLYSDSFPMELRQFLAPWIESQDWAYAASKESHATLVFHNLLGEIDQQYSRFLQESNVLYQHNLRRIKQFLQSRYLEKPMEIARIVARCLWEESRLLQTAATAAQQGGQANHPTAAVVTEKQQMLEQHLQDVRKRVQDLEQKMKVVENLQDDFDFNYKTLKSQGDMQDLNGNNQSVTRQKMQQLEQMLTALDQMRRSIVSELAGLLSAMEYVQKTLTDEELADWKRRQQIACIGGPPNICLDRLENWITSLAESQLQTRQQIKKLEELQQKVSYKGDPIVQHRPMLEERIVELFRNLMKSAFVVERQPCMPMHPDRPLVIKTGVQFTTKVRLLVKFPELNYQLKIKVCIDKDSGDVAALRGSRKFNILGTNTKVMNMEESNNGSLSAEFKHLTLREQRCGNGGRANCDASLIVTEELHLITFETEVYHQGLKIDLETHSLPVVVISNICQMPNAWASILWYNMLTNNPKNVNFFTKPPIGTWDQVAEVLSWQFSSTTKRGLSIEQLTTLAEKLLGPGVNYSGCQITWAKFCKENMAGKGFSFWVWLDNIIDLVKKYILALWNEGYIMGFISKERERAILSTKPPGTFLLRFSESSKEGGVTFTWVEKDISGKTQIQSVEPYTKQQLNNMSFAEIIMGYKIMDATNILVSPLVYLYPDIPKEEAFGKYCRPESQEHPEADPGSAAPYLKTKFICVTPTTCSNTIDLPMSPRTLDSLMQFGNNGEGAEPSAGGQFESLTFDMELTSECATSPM

- inhibition [5]: Dde
- inhibition [6]: Active
- inhibition [7]: Active
- inhibition [8]: Dde
- inhibition [9]: Dde
SMILES: CCCn1c(-c2cccc(OC)c2)nc2cc3nc(-c4cccc(OC)c4)n(CCC)c3cc21
- Activity (HepG2 [1]): 1.54%
- viability at 5 µM (HepG2 [2]): 76.6%
- IC50 [3]: > 10 µM
- IC50 (ECa-109 cell line [4]): 3.63 µM
- Activity (HepG2 [10]): 8.44%
- Activity (HepG2 [11]): 13.4%
- viability at 10 µM (HepG2 [12]): 39.5%
- Activity (HepG2 [13]): 39.4%
- Activity (HepG2 [14]): 1.49%
- viability at 20 µM (HepG2 [15]): 17.3%
- Activity (HepG2 [16]): 29.9%
- Activity (HepG2 [17]): 51.9%
- viability at 5 µM (ECa-109 cell line [18]): 85.8%
- viability at 10 µM (ECa-109 cell line [19]): 70.5%
- Activity (ECa-109 cell line [20]): 11.2%
- Activity (ECa-109 cell line [21]): 17.2%
- viability at 20 µM (ECa-109 cell line [22]): 46.8%
- Activity (ECa-109 cell line [23]): 18.2%
- Activity (HepG2 [24]): Dde
- Activity (ECa-109 cell line [25]): Dde
- Activity (HepG2 [26]): 74.51%
- Activity (HepG2 [27]): 16.55%
- Activity (ECa-109 cell line [28]): 58.73%
- Activity (ECa-109 cell line [29]): 28.53%
- inhibition (HepG2 [30]): Dde
- inhibition in vivo at 20 mg/kg (HepG2 [31]): 42.5%
- inhibition in vivo at 40 mg/kg (HepG2 [32]): 47.3%
- Activity [33]: Non-Toxic
- Activity (HepG2 [34]): Active
- Activity (HepG2 [35]): Active
